Earlier results on one compound are cited in patent US7534449B2, “Targeted and high density drug loaded polymeric materials” (Yale University, priority 2004, dated 2009).

The structures appear in SMILES notation.

For the compound `COc1cccc2c1C(=O)c1c(O)c3c(c(O)c1C2=O)C[C@@](O)(C(=O)CO)C[C@@H]3O[C@H]1C[C@H](N)[C@H](O)[C@H](C)O1` [Dox, doxorubicin], the pKa (commonly the pH at which an ionisable group is half protonated) is listed as 7.6. Also, the solubility result (aqueous environments) is reported as “limited solubility”.
